Experimental findings from PMC8401404 (Molecules, 2021) are described below.

Structures can show the parent of a compound that is named as a salt. Where two headings read alike, the source gives them in different places.

Data set [1] has as its system A549. Description: BrdU proliferation assay, 3D hanging drop cell culture. The class given is cell-based, human. The note with it: A549, 3D, BrdU, n = 2, read-out: Proliferation Assay IC50 ± SD.
Data set [2] concerns HCC827. Described as above. The format is cell-based, human. The note with it: HCC827, 3D, BrdU, n = 2, read-out: Proliferation Assay IC50 ± SD.
Data set [3] deals with NCI-H358. The description is as above. The class given is cell-based, human. The note with it: NCI-H358, 3D, n = 2, read-out: Proliferation Assay IC50 ± SD.
In data set [4] the test system is S. aureus ATCC 29213. Kind of data set: Broth microdilution testing (CLSI). The format is cell-based, Staphylococcus aureus. The note with it: 16–24h at 37 °C, read-out: MIC S. aureus ATCC 29213. The method, then: (§1) Broth microdilution testing was performed according to CLSI (Clinical Laboratory Standards Institute) guidelines. MIC (minimal inhibitory concentration) value was defined as the last tested concentration of compound at which there is no visible growth of bacteria. […] Clinical and Laboratory Standards Institute (CLSI) guidelines.
(In general: Broth dilution looks for growth in wells or tubes with falling amounts of substance.)

Data set [5] concerns A549. Description: MTS cytotoxicity assay, 2D cell culture. The note with it: read-out: Cytotoxicity Assay IC50 ± SD, A549 2D, 72 h, MTS, n = 2. In general terms: Formazan colour is commonly taken as a measure of viable cells.
The test system of data set [6] is HCC827. Description: MTS cytotoxicity assay, 2D cell culture. The note with it: read-out: Cytotoxicity Assay IC50 ± SD, HCC827 2D.
Data set [7] relates to NCI-H358. Description: MTS cytotoxicity assay, 2D cell culture. The note with it: read-out: Cytotoxicity Assay IC50 ± SD, NCI-H358 2D.
Data set [8] deals with A549. Description: BrdU proliferation assay, 2D cell culture. The format is cell-based, human. The note with it: A549, 2D, BrdU, n = 2, read-out: Proliferation Assay IC50 ± SD.
The test system of data set [9] is HCC827. Description: BrdU proliferation assay, 2D cell culture. The note with it: HCC827, 2D, BrdU, n = 2, read-out: Proliferation Assay IC50 ± SD. The class given is cell-based, human.
Data set [10] has as its system NCI-H358. Kind of data set: BrdU proliferation assay, 2D cell culture. The format is cell-based, human. The note with it: NCI-H358, 2D, n = 2, read-out: Proliferation Assay IC50 ± SD.
The test system of data set [11] is S. cerevisiae ATCC 7752. Kind of data set: Broth microdilution testing (CLSI). The format is cell-based, Saccharomyces cerevisiae. The note with it: broth microdilution, 16–24h at 37 °C, read-out: MIC S. cerevisiae ATCC 7752. As to the method:
as §1

The test system of data set [12] is A549. Kind of data set: Cytotoxicity (viability) assay, 3D hanging drop cell culture. The note with it: read-out: Cytotoxicity Assay IC50 ± SD, A549 3D.
The subject of data set [13] is HCC827. The description is as above. The note with it: read-out: Cytotoxicity Assay IC50 ± SD, HCC827 3D.
Data set [14] relates to NCI-H358. The description is as above. The note with it: read-out: Cytotoxicity Assay IC50 ± SD, NCI-H358 3D.
Data set [15] relates to human lung fibroblast cell line MRC-5. Kind of data set: MTS cytotoxicity assay, 2D cell culture, normal lung fibroblasts. The note with it: read-out: Cytotoxicity Assay IC50 ± SD; MRC-5 2D; MRC-5 normal lung fibroblasts, 2D, 72 h, MTS; n = 2.
Data set [16] has as its system E. coli ATCC 25922. Description: Broth microdilution testing (CLSI). The class given is cell-based, Escherichia coli. The note with it: broth microdilution, 16–24h at 37 °C, read-out: MIC E. coli ATCC 25922. The method, then: as §1
Data set [17] relates to poly dA-poly dT (DNA, polymer) A/T. Kind of data set: CD titration. The note with it: Na+ (sodium cacodylate, I = 0.05 M), pH 7.0, 25 °C, polynucleotide 3.0 × 10^-5 M.
The test system is the same in data set [18]. Kind of data set: UV thermal melting at 260 nm. The note with it: Na+ (sodium cacodylate, I = 0.05 M), pH 7.0, r = [compound]/[polynucleotide phosphate] = 0.3, error ±0.5, per base.
Data set [19] concerns poly(dAdT)2 (DNA, polymer) AT. Kind of data set: CD titration. The note with it: Na+ (sodium cacodylate, I = 0.05 M), pH 7.0, 25 °C, polynucleotide 3.0 × 10^-5 M.
Data set [20] concerns poly(dAdT)2 (DNA, polymer) AT. Kind of data set: UV thermal melting at 260 nm. The note with it: Na+ (sodium cacodylate, I = 0.05 M), pH 7.0, r = [compound]/[polynucleotide phosphate] = 0.3, error ±0.5, per base.
The subject of data set [21] is poly dA-poly dT. Description: Thermal melting experiments. The class given is binding. The note with it: r = 0.3, pH 7.0, sodium cacodylate buffer I = 0.05 mol dm^−3; error ±0.5 °C. An excerpt:
(§2) The thermal stability of helices is usually affected by the non-covalent binding of small molecules to double-stranded nucleic acids. We determined the ΔTm value (the difference between the Tm value of free polynucleotide and a complex with a small molecule) for complexes of selected compounds with ctDNA and an alternating polynucleotide, poly(dAdT)2. […] Because of this, we determined ΔTm value with non-alternating AT-DNA, poly dA-poly dT as well.

In data set [22] the test system is poly(dAdT)2. Kind of data set: Thermal melting experiments. The class given is binding. The note with it: r = 0.3, pH 7.0, sodium cacodylate buffer I = 0.05 mol dm^−3; error ±0.5 °C.
From the text: as §2

Data set [23] has as its system calf thymus DNA (ctDNA). Description: Fluorimetric titrations with ctDNA. The note with it: fluorescence titrations, Scatchard equation, pH 7.0, sodium cacodylate buffer I = 0.05 mol dm-3.
Description: The UV/vis spectra were recorded on a Varian Cary 100 Bio spectrophotometer, CD spectra on JASCO J815 spectrophotometer and fluorescence spectra on a Varian Cary Eclipse spectrophotometer.
Spectrophotometric titrations were performed at pH = 7 (I = 0.05 mol dm^−3, sodium cacodylate buffer) by adding portions of polynucleotide solution into the solution of the studied compound for fluorimetric experiments and CD experiments were performed by adding portions of the compound stock solution into the solution of a polynucleotide. In fluorimetric experiments excitation wavelengths of λexc = 350, 370 and 390 nm were used to avoid the inner filter effect caused due by increasing absorbance of the polynucleotide (Figures S3 and S4). Emission was collected in the range λem = 400–600 nm (SI).
aTitration data were processed using Scatchard equation, correlation coefficients were >0.97-
0.99 for all calculated Ks
The nature of data set [24]: Solubility in water (stock solutions).
The nature of data set [25]: MTS cytotoxicity assay, 2D cell culture, normal lung fibroblasts. The note with it: human, MRC-5 normal lung fibroblasts, 2D culture.
Data set [26] deals with ctDNA. Kind of data set: Thermal melting experiments. The format is binding, calf. The note with it: r = [compound]/[polynucleotide] = 0.3, pH 7.0, sodium cacodylate buffer I = 0.05 mol dm^−3; error ±0.5 °C.
From the text: as §2

[27] abbreviates: A549, 3D hanging drop spheres, 72 h, n = 2.
Setting [28] is: HCC827, 3D hanging drop spheres, 72 h, n = 2.
Setting [29] is: NCI-H358, 3D hanging drop spheres, 72 h, n = 2.

The term MIC denotes the lowest concentration that inhibits growth of the organism. By ΔTm is commonly meant the shift of the melting midpoint relative to a reference. What is called melting point is the temperature of the solid-liquid transition. In general, solubility refers to the concentration that dissolves in the medium under given conditions.

On to `N#CC(=Cc1ccc(-c2ccc(Cl)cc2)o1)c1nc2cc([N+](=O)[O-])ccc2[nH]1` [Compound 21, (E,Z)-3-[5-(4-Chlorophenyl)furan-2-yl]-2-(5(6)-nitrobenzimidazol-2-yl)acrylonitrile], for which the IC50 is over 100 µM in [1]; over 100 µM in data set [2]; over 100 µM in data set [3]; over 50 µM in data set [5]; over 50 µM in [6] (72 h, MTS, n = 2); 3.58 ± 0.95 µM in data set [7] (72 h, MTS, n = 2). Further, the IC50 is over 50 µM in [8]; over 50 µM in [9]; over 50 µM in [10]; over 100 µM in data set [12] (setting [27]); over 100 µM in data set [13] (setting [28]); over 100 µM in [14] (setting [29]). The IC50 in [15] was over 50 µM. The MIC in data set [4] (broth microdilution), in [11] and in data set [16] was over 100 µM each time.
As to `Clc1ccc(-c2ccc(-c3nc4cc(C5=NCCN5)ccc4[nH]3)o2)cc1` (as salt: hydrochloride) [Compound 15, 2-[5-(4-Chlorophenyl)furan-2-yl]-5(6)-(4,5-dihydro-1H-imidazol-2-yl)benzimidazole hydrochloride], the melting point was 262 to 269 °C. The binding entry in data set [17] is “yes”. Further, the ΔTm in [18] amounted to 11.7 °C. Further, the binding entry in data set [19] is reported as “yes”. In addition, the ΔTm in data set [20] was 6.2 °C.
`Cl.Clc1ccc(-c2ccc(-c3nc4ccc(C5=NCCN5)cc4s3)o2)cc1` [Compound 9, 2-[5-(4-Chlorophenyl)furan-2-yl]-6-(4,5-Dihydro-1H-imidazol-2-yl)benzothiazole hydrochloride] showed a melting point of 293 to 297 °C. Moreover, the “ΔTm Poly dA-poly dT” value in data set [21] came out at 15.2 °C. Further, the “ΔTm poly (dAdT)2” value in data set [22] was found to be 4.6 °C. Also, in data set [1] (Homo sapiens), the IC50 stood at 17 ± 3.53 µM. In [2] (Homo sapiens), the IC50 is 20.3 ± 13.9 µM. In [3] (Homo sapiens), the IC50 is 6.39 ± 3.29 µM. The MIC in [4] (Staphylococcus aureus, ATCC29213, broth microdilution) was 25 µM. In addition, the IC50 in data set [5] (Homo sapiens, A549, 72 h) was 4.39 ± 0.79 µM. Also, the IC50 in data set [6] (Homo sapiens, HCC827, 72 h) came to 5.9 ± 0.58 µM. In addition, the IC50 in data set [7] (Homo sapiens, NCI-H358, 72 h) is 4.48 ± 0.3 µM. In addition, the ΔTm in data set [18] was 15.2 °C. Further, the “Binding constants (logKs) with ctDNA” value in data set [23] was 6.1. Moreover, the binding entry in data set [19] is “yes”. Besides, in data set [8] (Homo sapiens), the IC50 amounted to 9.97 ± 5.37 µM. Also, the IC50 in data set [9] (Homo sapiens) worked out at 8.69 ± 2.79 µM. Moreover, the IC50 in data set [10] (Homo sapiens) worked out at 5.57 ± 0.81 µM. Also, the minimal inhibitory concentration (MIC) in [11] (Saccharomyces cerevisiae, ATCC7752) was found to be 3.13 µM. In addition, the IC50 in data set [12] (Homo sapiens, A549, 72 h) was found to be 16.8 ± 2.61 µM. The IC50 in [13] (Homo sapiens, HCC827, 72 h) worked out at 20 ± 7.92 µM. For the same compound, the IC50 in [14] (Homo sapiens, NCI-H358, 72 h) is 15.49 ± 0.07 µM. In data set [24], this compound had a solubility of 1320 µM. For the same compound, the ΔTm in data set [20] is 4.6 °C. In data set [25], this compound came in with an IC50 at 72 h of 6.65 ± 0.18 µM. Moreover, the MIC in [16] (Escherichia coli, ATCC25922) was over 100 µM. Also, the “ΔTm ctDNA” value in data set [26] came to 1.8 °C.
Regarding `N#CC(=Cc1ccc(-c2ccc([N+](=O)[O-])cc2)o1)c1nc2cc([N+](=O)[O-])ccc2[nH]1` [Compound 18, (E,Z)-2-(5(6)-Nitrobenzimidazol-2-yl)-3-[5-(4-nitrophenyl)furan-2-yl]acrylonitrile], the IC50 in [1] is over 100 µM; in data set [2], over 100 µM; in data set [3], over 100 µM; in data set [5], over 50 µM; in [6] (72 h, MTS, n = 2), over 50 µM; in [7] (72 h, MTS, n = 2), 3.5 ± 1.14 µM. For the same compound, the IC50 in data set [8] is over 50 µM; in data set [9], over 50 µM; in [10] it was over 50 µM; in data set [12] (setting [27]), over 100 µM; in data set [13] (setting [28]), over 100 µM; in data set [14] (setting [29]), over 100 µM. Moreover, the IC50 in data set [15] is over 50 µM. Also, the minimum inhibitory concentration (MIC) in [4] (broth microdilution), in data set [11] and in data set [16] was over 100 µM each time.
